# Entries after “also recorded” stand apart in the source; their conditions may differ.
# How the values were obtained:
# [1] = system: glioma-initiating cells (TGS-01, TGS-04); test: Sphere formation assay; format: cell-based, human
# Experimental: GICs were cultivated for seven days using a non-tissue-culture-treated-flask with vent cap (BD Bioscience). The floating spheres were counted for each sample within five fields of vision under a microscope.
# To clarify the role of TGF-β signals in glioma-initiating cells, first the effects due to TGF-β signal inhibition were examined. A sphere formation ability assay was implemented in the presence of either TGF-β or a TGF-β inhibitor (SB431542, 1 μM).
# SB431542 can inhibit not only the TGF-β type I receptor (ALK5), but also activin/nodal type I receptor signals, so to identify the role of TGF-β signals, the effects of a TGF-β receptor II/Fc chimera on glioma-initiating cells were examined. The glioma-initiating cells were separated into single cells, and a sphere assay implemented in the presence of either human TGF-βRII/Fc chimera (1 μg/mL), or IgG1Fc (1 μg/mL) as a control.
# [2] = system: CD133-positive cells in glioma spheres; test: Flow cytometry of CD133-positive cells; format: cell-based, human
# Experimental: The cells were separated into single cells, and marked using phycoerythrin marker CD133 antibodies. The expression levels were measured using EXPO32 ADC software through a Beckman C EPICS XL flow cytometer.
# (§1) Next, the effects of TGF-β (100 μM) or SB431542 (1 μM) were examined using flow cytometry. In the presence of TGF-β inhibitors, the percentage of CD133-positive cells in the glioma spheres was reduced. (See FIG. 3A.) Further, to examine the expression of neural precursor cell markers or neural cell differentiation markers in the glioma spheres, the spheres (TGS-01) were separated into single serum-free culture, and seeded on glass slides that had been coded using poly-L-ornithine (Sigma) and fibronectin (Sigma), and were then cultured for seven days together with TGF-β (100 μM) or the inhibitor SB431542 (1 μM). The cells were fixed using 3.7% paraformaldehyde, and the cell membrane was made permeable using 0.3% Triton […] including PBS, and incubated together with antibodies before immunostaining was implemented.
# [3] = system: Nestin, Musashi, GFAP, Tuj1 positive glioma-initiating cells; test: Immunostaining of neural precursor and differentiation markers; format: cell-based, human
# Experimental: Glioma-initiating cells (GICs) were seeded on glass slides that had been coded using poly-L-ornithine (Sigma) and fibronectin (Sigma), and were then cultured for seven days together with various ligands or inhibitors in serum-free culture. The cells were fixed using 3.7% paraformaldehyde, and then the cell membrane was made permeable using 0.3% Triton […] including PBS, and incubated together with various antibodies.
# as §1
# Sox2 mRNA = Sox2 mRNA expression by quantitative real-time PCR; format: cell-based, human
# Experimental: (§2) Quantitative real-time PCR was implemented according to the method by Ikushima et al. (EMBO J. 2008, 27: 2955-2965). All samples were implemented in triplicate. The data was normalized using glyceraldehyde 3-phosphate dehydrogenase (GAPDH).
# In addition, siRNA (siSMAD2 and siSMAD3) were transfected to SMAD2 and SMAD3 in TGS-01 cells, and incubated for 24 hours, and then processed for TGF-β (100 μM), and the expression levels measured. […] (See FIG. 4B).
# The induction of Sox2 expression by TGF-β was observed 24 hours after stimulation, but not observed after three hours. (See FIG. 4A.) Further, the effects of TGF-β on Sox2 expression in the presence of cycloheximide, which is a protein synthesis inhibitor, were examined. TGF-β (100 μM) processing was implemented for 24 hours, and after processing the TGF-β for 30 minutes, the cycloheximide processing was started, and the Sox2 expression levels were measured. In the presence of cycloheximide, which is a protein synthesis inhibitor, the induction of Sox2 expression was reduced. From these facts, it is thought that Sox2 expression is not induced directly by TGF-β, but rather, that it is controlled by other factors that are induced by TGF-β.
# Sox2 protein = Sox2 protein level by immunoblotting; format: cell-based, human; conditions: 24-hour processing; TGF-β 100 μM or SB431542 1 μM
# Experimental: The cells were dissolved in a buffer including 1% Nonidet P-40, 20 mM Tris-hydrochloride (pH7.4), 150 mM sodium chloride, 1 mM PMSF, 1% aprotinin, and 5 mM EDTA. The proteins refined from the cytolized product was supplied to SDS-PAGE, and transferred to a Fluoro Trans W Membrane (Pall). Immunoblotting was implemented using various types of antibodies.
# Moreover, it was also verified that the 24-hour processing using TGF-β (100 μM) or SB431542 (1 μM) suppressed the expression of Sox2 protein levels. (See FIG. 4C.) In the diagram, α-tubulin is the loading control.
# Sox4 mRNA = Sox4 mRNA expression by quantitative real-time PCR; format: cell-based, human; conditions: for Sox4 mRNA expression: TGS-01 and TGS-04, three hours and 24 hours, TGF-β 100 μM or SB431542 1 μM
# Description: as §2
# [4] = system: SMAD complexes binding to Sox4 promoters; test: Chromatin immunoprecipitation with SMAD2 and SMAD3 antibodies; format: cell-based, human; conditions: TGS-01; 1.5 hours; TGF-β 100 μM or SB431542 1 μM
# Experimental: (§3) Chromatin immunoprecipitation was implemented using the method described by Koinuma et al. (Molecular and Cellular Biology, 2009, 29:172-186, 10.1128/MCB, 01038-08). After reverse cross-linking, the DNA was processed using proteinase K, and refined using a PCR purification kit (Qiagen). The DNA was eluted into 30 μL of TE, and used in either PCR or quantitative real-time PCR. The primers used in the PCR are as described below.
# To verify that Sox4 is a direct TGF-β marker, chromatin immunoprecipitation assay was implemented using antibodies to SMAD2 and SMAD3, which are DNA binding signal mediators for the TGF-β signals. Specifically, TGS-01 cells were processed for 1.5 hours using either TGF-β (100 μM), or SB431542 (1 μM), and the eluted DNA was supplied for either real-time PCR or RT-PCR. In real-time PCR, the measured values were normalized using the first introns of hypoxanthine phosphoribosyltransferase (HPRT). […] (See FIG. 6F.)
# [5] = system: Sox4 recruitment to the Sox2 enhancer region; test: Chromatin immunoprecipitation with Sox4 antibodies; format: cell-based, human; conditions: TGS-01; 24 hours; TGF-β 100 μM or SB431542 1 μM
# Experimental: as §3
# To verify that this control is direct, chromatin immunoprecipitation assay was implemented using Sox4 antibodies. It has previously been reported that the enhancer region located in the Sox2 gen 3′ flanking region is important for controlling Sox2 expression. (Chew et al., Molecular and Cellular Biology, 2005, 25:6031-6046; Tomioka et al., Nucleic Acids Research, 2002, 30: 3202-3213.) This region includes the consensus binding motif CATTGTA to Sox4. […]
# Here, TGS-01 cells were processed for 24 hours using either TGF-β (100 μM), or SB431542 (1 μM), and the eluted DNA analyzed using quantitative real-time PCR. The measured values were normalized using HPRT first intron quantities. […] Further, to examine the effects of Sox4 knockdown on sox2 expression induction by TGF-β, siRNA was stained, and after for 24 hours, was processed for a further 24 hours using TGF-β (100 μM), and the Sox2 mRNA expression levels measured using real-time PCR. […]
# [6] = system: TGS-01 cells transplanted intracranially; test: Intracranial proliferation assay; format: in vivo, BALB/c nu/nu mice
# Experimental: Glioma-initiating cells (living cells […] in 5 μL of DMEM/F12 culture) were injected stereotaxically at a depth of 3 mm into the right cerebral hemisphere of five-week-old female BALB/c nu/nu mice. All animal testing was implemented according to the policies of the University of Tokyo animal testing committee.
# Specifically, adenovirus-Sox4 or adenovirus-LacZ staining was implemented, and 5×10^4 TGS-01 cells either unprocessed or after 24 hours processing using a TGF-β inhibitor were transplanted intracranially. TGF-β is well-known to promote glioma cell proliferation, so to classify the results into effects on growth and effects in differentiation, SB431542 processing was implemented as pre-processing and not implemented continuously. Six mice were used for each condition, and evaluated using Kaplan-Meier analysis. The p values were determined using the long-rank test. […] Further, the results of histological analysis of the samples dissected 30 days after intracranial transplant are shown in FIG. 11 (Right). Tissue sections were stained using hematoxylin and eosin (HE).
# [7] = system: Oct-4, NANOG, and LIF expression; test: Expression of stem cell markers Oct-4, NANOG, LIF; format: cell-based, human
# Description: as §2
# (See FIG. 14.) Further, it has been reported that NANOG and LIF are induced in many cells by stimulating TGF-β. (Xu et al., Cell Stem Cell, 2008, 3: 206; Bruna et al., Cancer Cell, 2007, 11: 147-160.)
# [8] = 24 hours after processing, TGF-β 100 μM or SB431542 1 μg (so in the source)
# [9] = cells pre-processed with SB431542, 30 days after intracranial transplant
molecule,measurement,setting,value
NC(=O)c1ccc(-c2nc(-c3ccc4c(c3)OCO4)c(-c3ccccn3)[nH]2)cc1 [SB431542],sphere formation ability of glioma-initiating cells,"[1]; SB431542 1 μM, seven days culture",conspicuously reduced
same,spherical growth pattern of spheres that had once formed,[1]; SB431542 added to formed spheres,became adhesion cells
same,sphere formation ability,"[1]; TGS-01 over-expressing Sox4 (adenovirus-Sox4 vs adenovirus-LacZ), SB431542 1 μM, seven days",fall in sphere formation ability was alleviated
same,sphere formation abilities,"[1]; glioma-initiating cells over-expressing Sox2, compared to LacZ over-expressing cells",reduced only slightly
same,percentage of CD133-positive cells in the glioma spheres,[2]; SB431542 1 μM,reduced
same,percentages of Nestin-positive cells and GFAP-positive cells,"[3]; TGS-01 over-expressing Sox4, SB431542, seven days",no major changes
same,percentage of GFAP-positive cells,[3]; cells over-expressing Sox2,did not increase
same,percentage of Nestin-positive cells,[3]; cells over-expressing Sox2,did not fall
same,expression of Sox2 mRNA,Sox2 mRNA; [8],suppressed
same,expression of Sox2 mRNA,"Sox2 mRNA; subsequently for seven days, SB431542 1 μg (so in the source)",low expression level continued
same,expression of Sox2 protein levels,Sox2 protein,suppressed
same,Sox4 mRNA expression,Sox4 mRNA,down-regulated
same,binding of SMAD complexes to Sox4 promoters,[4],clearly controlled
same,Sox4 recruitment to the Sox2 enhancer region,[5],clearly reduced
same,survival period of the mice,"[6]; TGS-01 (adenovirus-LacZ) pre-processed 24 hours with SB431542 vs unprocessed control, Kaplan-Meier",significantly longer
same,neurological symptoms,[6]; [9],did not show any neurological symptoms
same,tumors on pathological examination using HE staining,[6]; [9],did not reveal any tumors
same,extension of survival periods,"[6]; glioma-initiating cells over-expressing Sox4, pre-processed with SB431542",did not shown any effects
C[C@@H]1C[C@@H]([C@H](O)CC2CC(=O)NC(=O)C2)C(=O)[C@@H](C)C1 [cycloheximide],induction of Sox2 expression by TGF-β in the presence of cycloheximide,"Sox2 mRNA; TGF-β 100 μM (so in the source) 24 hours, cycloheximide started after 30 minutes",reduced
same,Sox4 induction by TGF-β in the presence of cycloheximide,Sox4 mRNA,not influenced
CC1=C2C[C@H]3[C@@H](CC=C4C[C@@H](O)CC[C@@]43C)[C@@H]2CC[C@]12O[C@@H]1C[C@H](C)CN[C@H]1[C@H]2C [cyclopamine],effects on sphere formation compared with SB431542,"[1]; TGS-01, cyclopamine 2.5, 5, 10 μM vs SB431542 1 μM",smaller than those of SB431542
same,effect on sphere formation of the two drugs combined,"[1]; TGS-01, cyclopamine combined with SB431542 1 μM",no additional or synergistic effect
same,sphere formation ability of TGS-01 cells,"[1]; cyclopamine 2.5, 5, and 10 μM, seven days",reduced
TGF-β,sphere formation ability,[1]; adding TGF-β,did not greatly influence
same,CD133-positive ratio,[2]; adding TGF-β (100 μM [sic]),did not greatly influence
same,marker expression,"[3]; adding TGF-β (100 μM [sic]), seven days",did not greatly influence
same,expression of Sox2 mRNA,Sox2 mRNA; [8],induced; also recorded: observed
same,induction of Sox2 expression,Sox2 mRNA; three hours after TGF-β stimulation,not observed
same,expression of Sox2 protein levels,Sox2 protein,suppressed
same,Sox4 mRNA expression,Sox4 mRNA,induced
same,binding of SMAD complexes to Sox4 promoters,[4],bound directly
same,Sox4 recruitment to the Sox2 enhancer region,[5],increased
same,LIF expression,"[7]; TGS-01 or TGS-04 cells, TGF-β signals",did not induce
same,"expression of Oct-4, NANOG, and LIF",[7]; processing using TGF-β or an inhibitor,not greatly affected
"TGF-βRII/Fc: human TGF-β receptor II/Fc chimera (protein, left off: a dimerising Fc or GST, human TGF-β receptor II/Fc chimera) TIPPHVQKSVNNDMIVTDNNGAVKFPQLCKFCDVRFSTCDNQKSCMSNCSITSICEKPQEVCVAVWRKNDENITLETVCHDPKLPYHDFILEDAASPKCIMKEKKKPGETFFMCSCSSDECNDNIIFSEEYNTSNPD",efficiency in forming spheres,"[1]; human TGF-βRII/Fc chimera 1 μg/mL, IgG1Fc 1 μg/mL as control",low
